The source of these data is BindingDB's records for doi:10.1016/j.bmcl.2010.08.042 (Vanderbilt University Medical Center, 2010).

The target of this assay is T1, Muscarinic acetylcholine receptor M1 (Homo sapiens, UniProt P11229).
T1 sequence (P11229 whole entry): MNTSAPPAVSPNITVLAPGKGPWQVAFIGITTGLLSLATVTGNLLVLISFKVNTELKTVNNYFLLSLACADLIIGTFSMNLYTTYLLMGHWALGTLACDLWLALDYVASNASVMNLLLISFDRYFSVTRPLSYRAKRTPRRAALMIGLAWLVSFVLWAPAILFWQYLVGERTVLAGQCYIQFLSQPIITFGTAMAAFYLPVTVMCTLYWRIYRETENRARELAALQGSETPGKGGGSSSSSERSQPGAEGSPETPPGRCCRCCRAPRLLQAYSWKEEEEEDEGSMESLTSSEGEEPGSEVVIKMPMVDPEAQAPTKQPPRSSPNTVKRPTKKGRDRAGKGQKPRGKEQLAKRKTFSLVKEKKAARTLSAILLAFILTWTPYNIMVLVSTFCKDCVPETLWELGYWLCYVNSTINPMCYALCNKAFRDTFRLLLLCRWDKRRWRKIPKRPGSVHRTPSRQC
Briefly: Positive allosteric modulation of muscarinic M1 receptor expressed in CHO cells assessed as effect on acetylcholine-induced intracellular calcium mobilization after 1 hr by FLIPR assay. On the technique in general: A change in cytosolic calcium serves as a functional read-out for many receptors and channels.

With `O=C1C(=O)N(Cc2ccc(Br)cc2)c2ccccc21`, the EC50 is 6.1 µM.

For orientation: EC50 means the concentration needed to bring the measured effect to its halfway point.
